According to patent US20240239818A1, “COMPOUNDS AND COMPOSITIONS COMPRISING FLUOROPHORES FOR USE IN VISUALIZATION AND PURIFICATION OR MANIPULATION” (priority 2022, published 2024):

Legend:
[1] = molecular target: T1, HaloTag®-PDGFR fusion protein (Rhodococcus rhodochrous, UniProt P0A3G2, A155T/A167V/A172T/A224E/C128F/C176G/D78G/E160K/E257K/H272N/K175M/K195N/L47V/L88M/N227D/S58T/T264A/Y273L/Y87F); assay: Live-cell labeling of cell surface HaloTag® fusion in U2OS cells (Airyscan fluorescence microscopy); assay type: cell-based; conditions: 100 nM, 1 h
T1 construct: expressed in transfected cells; host or cells: U2OS, transient nucleofection
Description: (§1) U2OS cell culture, labeling, and fluorescence microscopy. U2OS cells (ATCC) were cultured in Dulbecco's modified Eagle medium (DMEM, phenol red-free; Life Technologies) supplemented with 10% (v/v) fetal bovine serum (FBS, Life Technologies), 1 mM GlutaMAX (Life Technologies) and maintained at 37° C. in a humidified 5% (v/v) CO2 environment. These cell lines undergo regular mycoplasma testing by the Janelia Cell Culture Facility. U2OS cells stably expressing an integrated HaloTag®-histone H2B fusion protein (U2OS.H2B.HaloTag®) were used for nuclear imaging and imaged 18-24 h post-plating. […]
(§2) Live cell imaging with biotin-rhodamine HaloTag® ligands. Having evaluated biotin ligands 12-15 in vitro, their ability to label HaloTag® fusions in live mammalian cells was tested. […] Quantification of the intracellular fluorescence signal from JF549 and msGFP channel further confirmed the poor labeling from 12 (FIG. 9).

[2] = system: HaloTag®-TOMM20, HaloTag®-Sec61β, HaloTag®-histone H2B fusion proteins; assay type: cell-based
Description: as §1, §2

[3] = Determination of lactone-zwitterion equilibrium constant (KL-Z); assay type: physicochemical; conditions: 1:1 (v/v) dioxane:water
Description: Determination of KL-Z. The lactone-zwitterion equilibrium constant (KL-Z) was calculated as described previously^13, 23, 32, 45 using equation 1: […]
where εdw is the extinction coefficient of the dyes in a 1:1 (v/v) dioxane:water solvent mixture containing 0.01% (v/v) triethylamine; this dioxane water mixture was chosen to give a large range of KL-Z values,^23 and the triethylamine additive ensures the rhodamines are in the net neutral form. The εmax is the maximal extinction coefficient, measured in 0.1% (v/v) trifluoroacetic acid in 2,2,2-trifluoroethanol (TFE).

[4] = molecular target: T2, HaloTag® protein (HT7) (Rhodococcus rhodochrous, UniProt P0A3G2, A155T/A167V/A172T/A224E/C128F/C176G/D78G/E160K/E257K/H272N/K175M/K195N/L47V/L88M/N227D/S58T/T264A/Y273L/Y87F); assay: 1-Photon spectroscopy and quantum yield of HaloTag® conjugates; assay type: physicochemical; conditions: absence vs presence of excess HaloTag® protein
T2 construct: 6xHis (N); T7 tag (gene 10 leader) (N); Xpress tag (N); made in house; host or cells: bacterial expression (vector pRSET-A)
Description: HaloTag® protein purification. The bacterial expression vector pRSET-A (Invitrogen) was used to recombinantly express HaloTag® protein (HT7; Promega).^45 The soluble 6×His-Tagged HaloTag® protein was affinity purified by immobilized metal affinity chromatography (IMAC) on a 5-mL Fast Flow HiTrap Sepharose 6 column (Cytiva) with a 0-200 mM imidazole elution gradient using an Avant Protein Purification System (ÄKTA). A280 peak fractions were pooled, concentrated by a spin concentrator, and dialyzed 3× into tris-buffered saline (TBS). The amino acid sequence of HaloTag® protein (HT7) expressed from pRSET-A is SEQ ID NO: 1.
1-Photon spectroscopy of HaloTag® ligands and HaloTag® conjugates. […] All measurements were taken at ambient temperature (22 ±2° C.). Absorption spectra were recorded on a Cary Model 100 spectrometer (Agilent) using 1-cm path length 1.0-mL quartz microcuvettes from Starna Cells. Fluorescence spectra were recorded on a Cary Eclipse fluorometer (Varian) using 1-cm path length 3.5-mL quartz cuvettes (Starna Cells). […] An aliquot of HaloTag® protein (1.5 equiv) was added, and the resulting mixture was incubated until a consistent absorbance signal was observed (60-120 min). To measure the fold-increase of absorbance upon HaloTag® binding, a “no HaloTag®” control experiment was performed where an equivalent volume of TBS blank was added in place of the protein. […]

Chain of HaloTag®-TOMM20, HaloTag®-Sec61β, HaloTag®-histone H2B fusion proteins (as listed by the source): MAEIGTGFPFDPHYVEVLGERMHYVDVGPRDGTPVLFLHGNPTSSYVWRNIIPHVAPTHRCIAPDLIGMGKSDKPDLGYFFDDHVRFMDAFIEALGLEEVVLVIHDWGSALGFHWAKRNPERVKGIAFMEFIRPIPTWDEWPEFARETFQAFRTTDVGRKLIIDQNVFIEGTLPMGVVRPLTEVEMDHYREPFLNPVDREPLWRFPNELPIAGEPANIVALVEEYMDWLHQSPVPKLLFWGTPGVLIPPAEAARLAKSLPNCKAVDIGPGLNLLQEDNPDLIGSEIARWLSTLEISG
T2 sequence (P0A3G2 other isoform, or with tags, fused parts or gaps with the stated changes): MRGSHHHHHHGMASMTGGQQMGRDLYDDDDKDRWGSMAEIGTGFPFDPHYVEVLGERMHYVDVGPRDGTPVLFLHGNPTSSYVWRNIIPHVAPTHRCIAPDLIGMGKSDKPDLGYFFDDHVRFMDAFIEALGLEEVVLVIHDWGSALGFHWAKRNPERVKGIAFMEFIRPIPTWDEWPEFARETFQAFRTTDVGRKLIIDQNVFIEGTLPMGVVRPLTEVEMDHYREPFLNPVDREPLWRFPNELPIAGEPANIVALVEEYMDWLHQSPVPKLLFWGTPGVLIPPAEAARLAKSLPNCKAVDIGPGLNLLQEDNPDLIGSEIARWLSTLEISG
T1 sequence (P0A3G2 other isoform, or with tags, fused parts or gaps with the stated changes): as the sequence (as listed by the source) above

Row | Molecule | labeling of extracellular HaloTag®-PDGFR fusion [1] | cell-permeability [2] | labeling of intracellular HaloTag® fusions ([2]; live U2OS cells, 100 nM, 1 h, mitochondria, ER, nucleus) | KL-Z [3] | fluorogenicity upon conjugation to the HaloTag® protein (fold-increase of absorbance) [4]
1 | Biotin-JF549-HaloTag® ligand [compound 12] | robust labeling of the cellular membrane | poor cell-permeability | did not show an appreciable signal | 5.9 | –
2 | C[Si]1(C)C2=CC(=[N+]3CC(F)(C(=O)NCCOCCOCCNC(=O)CCCC[C@@H]4SC[C@@H]5NC(=O)N[C@@H]54)C3)C=CC2=C(c2cc(C(=O)NCCOCCOCCCCCCCl)ccc2C(=O)[O-])c2ccc(N3CC(F)C3)cc21 (stereo partly drawn) [compound 15, Biotin-JF635-HaloTag® ligand] | – | – | – | 0.0032 | 14.7 ×
3 | C[Si]1(C)c2cc(N3CC(F)C3)ccc2C2(OC(=O)c3ccc(C(=O)NCCOCCOCCCCCCCl)cc32)c2ccc(N3CC(F)C3)cc21 [5HTL, JF635-HaloTag® ligand, reference compound] | – | – | – | 0.0048 | –
4 | C[Si]1(C)C2=CC(=[N+]3CC(C(=O)NCCOCCOCCNC(=O)CCCC[C@@H]4SC[C@@H]5NC(=O)N[C@@H]54)C3)C=CC2=C(c2cc(C(=O)NCCOCCOCCCCCCCl)ccc2C(=O)[O-])c2ccc(N3CCC3)cc21 (stereo partly drawn) [compound 14, Biotin-JF646-HaloTag® ligand] | – | – | – | 0.0086 | 2.5 ×
